The record followed here is patent EP1795186B1, “Flupirtin comprising medicament formulation with a controlled release of the active agent” (TEVA GmbH, priority 2005, dated 2007).

The data set is described as follows: Solubility in hydrochloric acid (gastric juice). It is filed as physicochemical.

With `CCOC(=O)Nc1ccc(NCc2ccc(F)cc2)nc1N` [Flupirtinmaleat], the “Löslichkeit in Salzsäure (Magensaft)” value is “löslich”.
